# In patent USRE47954E1, “Combination therapy with peptide epoxyketones” (priority 2008, dated 2020):
# Like-named read-outs stand apart in the source and are kept apart here.
# Experiments:
# [1] = Experimental: Toxicity Studies: 4-6 weeks old female BNX mice were treated with chemotherapeutic agents of multiple classes as monotherapy or in combination with carfilzomib. Two weeks toxicity studies were performed at doses and dose schedules as mentioned in the figure legend. Toxicity was measured as body weight loss three times a week.
# The dose schedule as shown in FIG. 2A was Doxil day 1 (iv), after one hour Compound 1 day 1, 2 (iv).
# The dose schedule as shown in FIG. 5A was docetaxel day 1 (iv), after one hour Compound 1 day 1, 2 (iv).
# [2] = tested on: RL human lymphoma cells; test: RL human lymphoma xenograft, Example 1 (FIG. 1); format: in vivo, Immunocompromised mice (BNX); conditions: Compound 1 IV Days 1 and 2 each week + SAHA IP Days 1-5 each week; two-way ANOVA, Bonferroni
# Experimental: Immunocompromised mice (BNX, Charles River Laboratories) were challenged with subcutaneous administration of RL human lymphoma cells (1×10^7/mouse) on the right flank in a total volume of 0.1 mL phosphate buffered saline (PBS). When tumors were approximately 50 mm^3 in size (as indicated by the arrow in FIG. 1), mice were randomized to treatment groups (9 mice/group). Compound 1 was administered intravenously (IV) in a solution of 10% (w/v) sulfobutylether-betacyclodextrin in aqueous 10 mM citrate buffer pH 3.5. Administration was given on Days 1 and 2 each week. SAHA was formulated in 100% DMSO and administered intraperiotoneally (IP) on Days 1-5 each week. ***=P<0.001 (Compound 1+SAHA vs. Vehicle) by two-way ANOVA and Bonferroni post-hoc comparisons.
# [3] = tested on: RL tumors; test: RL lymphoma xenograft, Example 2 (FIG. 9); format: in vivo, BNX mice
# Experimental: (§1) Statistical significance was achieved when p<0.05.
# (§2) The effect of the combination of Compound 1 (3 mg/kg) and vorinostat (50 mg/kg) (n=8/group) on established RL tumors is shown in FIG. 9 (arrow indicates start of dosing period). The effect of the combination of Compound 1 (3 mg/kg) and vorinostat (50 mg/kg) (n=8/group) on established ES2 tumors. **, P<0.01; and ***, P<0.001 vs monotherapy and vehicle is shown in FIG. 10 (arrow indicates start of dosing period).
# [4] = tested on: A549 non-small cell lung cancer xenograft; test: A549 non-small cell lung cancer xenograft model (FIG. 4, 6, 7); format: in vivo, BNX mice
# Experimental: (§3) Xenograft studies: Tumors were established by subcutaneous (s.c.) injection of cell lines (passage number <9 and viability >95% at the time of implantation) in the right flank of BNX mice (n=8/9 per group). RL (0.1 mL) cell suspensions containing 1×10^7 cells. 5×10^6 cell suspension (0.1 mL) were injected in case of HT-29, ES2 and A549 cells. Mice were randomized into treatment groups and dosing initiated when tumors size was approximately 100 mm^3. In all treatment groups, tumors were measured three times weekly by recording the longest perpendicular diameters and tumor volumes were calculated using the equation V (mm^3)=(length×width^2)/2.
# (§4) Statistical analysis: For comparisons of treatment groups, a two-way ANOVA followed by Bonferroni post hoc analysis using GraphPad Prism Software (version 4.01) was performed. Statistical significance was achieved when p<0.05.
# [5] = tested on: ES2 tumors; test: ES2 ovarian xenograft (FIG. 10); format: in vivo, BNX mice; conditions: in combination with vorinostat (50 mg/kg), ovarian cancer model
# Experimental: as §1, §2
# [6] = tested on: MM1.S (multiply myeloma, dexamethasone sensitive) cells; test: Cell titer glo viability, combination index with melphalan (FIG. 11); format: cell-based; conditions: Compound 1 6.58 nM + melphalan 11.1, 7.4, 4.9 and 3.3 μM; melphalan pretreatment 24 hours, then Compound 1 24 hours
# Experimental: Compound 1 was tested at 6.58 nM in combination with melphalan at four different doses: 11.1, 7.4, 4.9 and 3.3 μM. MM1.S (multiply myeloma, dexamethasone sensitive) cells were plated at 200,000 cells/mL in 45 μL then pretreated with melphalan for 24 hours. Compound 1 was then added and the cells were incubated for an additional 24 hours at 6.58 nM. A 1:1 ratio of Cell titer glo solution was then added to the cell samples and read for viability. Combination index values were calculated using the Calcusyn program where values <0.9=synergy, 0.9-1.0=additive and >1.1=antagonistic.
# [7] = tested on: relapsed multiple myeloma patients; test: Phase Ib dose escalation study of carfilzomib plus lenalidomide and low-dose dexamethasone; format: in vivo; conditions: preliminary
# Excerpt: Within the first three cohorts, seventeen patients were evaluable for response and toxicity.
# [8] = tested on: HT29 colorectal xenograft; test: HT29 colorectal xenograft model (FIG. 3)
# Experimental: as §3, §4
# [9] = combination of Compound 1 and vorinostat
# [10] = combination Compound 1 (5 mg/kg) + Doxil (3 mg/kg)
# [11] = combination Compound 1 at MTD (5 mg/kg) + docetaxel (5 mg/kg), FIG. 6
# [12] = combination Compound 1 at sub-MTD (3 mg/kg) + sub-MTD docetaxel (5 mg/kg), FIG. 7
compound,measurement,setting,value
"CC(C)C[C@H](NC(=O)[C@H](CCc1ccccc1)NC(=O)CN1CCOCC1)C(=O)N[C@@H](Cc1ccccc1)C(=O)N[C@@H](CC(C)C)C(=O)[C@@]1(C)CO1 [Compound 1, carfilzomib]",MTD,[1]; carfilzomib QDx2 (iv),5 mg/kg
same,"tumor volume, P (Compound 1+SAHA vs. Vehicle)",[2],< 0.001
same,"RL tumor growth, p vs. Compound 1 or vorinostat alone",[3]; [9],< 0.01
same,"RL tumor growth, p vs. control",[3]; [9],< 0.001
same,lymphoma (RL) tumor growth,"[3]; combination with vorinostat, compared to vehicle controls or either single agent, Compound 1 3 mg/kg, vorinostat 50 mg/kg",significant reduction
same,anti-tumor effect of combination,"[3]; in combination with vorinostat, lymphoma model",synergistic anti-tumor effect
same,"tumor size, p vs. control or Doxil alone",[4]; [10],< 0.001
same,"tumor size, significance vs. carfilzomib alone",[4]; [10],No significance
same,"tumor size, p vs. carfilzomib alone",[4]; [11],< 0.05
same,"tumor size, p vs. control",[4]; [11],< 0.001
same,"tumor size, p vs. carfilzomib and docetaxel",[4]; [12],< 0.01
same,"tumor size, p vs. control",[4]; [12],< 0.001
same,A549 tumor growth,"[4]; combination with docetaxel, compared to vehicle controls or either single agent",significant reduction
same,anti-tumor effect of combination,"[4]; in combination with docetaxel at sub-MTD doses, human lung cancer model",synergistic anti-tumor effect
same,anti-tumor property of combination,[5],effective anti-tumor property
same,"combination effect (combination index, Calcusyn)",[6],synergistic and additive effects
same,maximum tolerated dose (MTD),[7]; first three cohorts,not yet reached
same,Responses,[7],durable
same,anti-tumor effect of combination,"[8]; Compound 1 and Doxil at sub-MTD doses, solid tumor model",synergistic anti-tumor effect
same,tumor burden,"[8]; Compound 1 and Doxil combination, HT-29 xenograft model",significantly reduced tumor burden
same,anti-tumor activity,[8]; Compound 1 at MTD (5 mg/kg) and sub-MTD of Doxil (3 mg/kg),increased anti-tumor activity
same,"tumor size, p vs. Doxil alone",[8]; [10],< 0.01
same,"tumor size, p vs. control or carfilzomib alone",[8]; [10],< 0.001
"CC(=O)O[C@@]12CO[C@@H]1C[C@H](O)[C@@]1(C)C(=O)[C@H](O)C3=C(C)[C@@H](OC(=O)[C@H](O)[C@@H](NC(=O)OC(C)(C)C)c4ccccc4)C[C@@](O)([C@@H](OC(=O)c4ccccc4)[C@H]21)C3(C)C [docetaxel, reference compound]",MTD,"[1]; docetaxel in combination with carfilzomib, docetaxel day 1 (iv), Compound 1 day 1, 2 (iv)",10 mg/kg
